{"source": "paper PMC5729930", "about": "“Bitopic fluorescent antagonists of the A2A adenosine receptor based on pyrazolo[4,3-e][1,2,4]triazolo[1,5-c]pyrimidin-5-amine functionalized congeners” (MedChemComm, 2017)", "target": "45 diverse receptors", "assay": "PDSP comprehensive off-target screen", "assay_type": "binding", "settings": "PDSP comprehensive screen at 45 targets", "description": ". Off-target binding activities at 45 diverse receptors were determined by PDSP[25] for selected compounds: 6c and 13 (ESI ^†). […]; 1.92 μM, 5HT2B receptor. Thus, the primary amine precursor of the fluorescent conjugates 10–12 was not promiscuous in its interaction with other proteins, i.e. this chemical series is not associated with pan-assay interference compounds.[26]\nChinese hamster ovary (CHO) cells stably expressing the human A2AAR were cultured in Dulbecco's Modified Eagle Medium (Mediatech, Manassas, VA) supplemented with 10% fetal bovine serum, 100 units/ml penicillin, 100 µg/ml streptomycin and 2 µmol/ml glutamine. Cells were plated in 96-well plates in 100 µl medium. After 24 h, the medium was removed and cells were washed three times with 100 µl DMEM, containing 50 mM HEPES, pH 7.4. Cells were treated with antagonists (or medium for control) in the presence of rolipram (10 µM) and adenosine deaminase (3 units/ml) and 5 min later with agonist for 20 min. The reaction was terminated by removal of the supernatant, and cells were lysed upon the addition of 100 µl of lysis buffer (0.3% Tween-20). cAMP was measured using ALPHAScreen cAMP kits (PerkinElmer, Boston, MA) as instructed by the manufacturer.\nRefer to: http://pdspdb.unc.edu for full list of comprehensive screen at 45 targets.\n5HT2A serotonin receptor: […]", "data": [{"smiles": "N.Nc1nc2c(cnn2CCCc2ccc(OCc3ccc(S(=O)(=O)O)cc3)cc2)c2nc(-c3ccco3)nn12", "note": "[compound 13]", "values": [{"measurement": "Off-target interactions (Ki in radioligand binding inhibition < 10 µM)", "value": "None detected"}]}]}
